Usually EC50 stands for the concentration needed to bring the measured effect to its halfway point.

Structures are written as SMILES. Where two headings read alike, the source gives them in different places. Non-standard residues stand in square brackets, D forms with d. Residues, ends and D or L forms follow the SMILES beside them. *: point of attachment. DOTA = O=C(O)CN1CCN(CC(=O)O)CCN(CC(=O)*)CCN(CC(=O)O)CC1; Bpa = N[C@@H](Cc1ccc(C(=O)c2ccccc2)cc1)C(=O)O; d3Pal = N[C@H](Cc1cccnc1)C(=O)O; azaGly = NNC(=O)O; Sar = CNCC(=O)O

Our source for the EC50 values is US20120045393A1 (priority 2009, published 2012).

This assay deals with LHRH binding sites on human ovarian cancer cells (EFO-27).
[1] abbreviates: EFO-27 cells, competition with [125I-Tyr8]BRU-2477, 90 min.
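Further: Cell-associated radioactivity on confluent EFO-27 monolayers in 96-well plates, measured by microplate scintillation counting.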

Experimental: The EFO27 human ovarian cancer cells were obtained from the American Type Culture Collection and cultured in growth medium, RPMI 1640 (Cellgro) supplemented with 10% fetal bovine serum. The cultures were maintained in a humidified atmosphere containing 5% CO2/95% air at 37° C. and passaged and harvested routinely using 0.05% trypsin/EDTA.
LHRH compounds were screened in a standard cell-based plate assay for their ability to compete with the radio-iodinated LHRH, [Darg^6, ^125I-Tyr^8,azaGly^10-LHRH-II] ([^125I-Tyr^8]BRU-2477) for binding to cancer cells. […] Briefly, EFO-27 cells were cultured and seeded in 96-well clear flat bottom plates at 30,000/well density in growth medium and were used for the assay at 100% confluence the following day, after a wash with chilled phosphate-buffered saline pH 7.4 (PBS). The binding assay was carried out by incubating cells with [^125I-Tyr^8]BRU-2477 in the absence or presence of varying concentrations of test compounds for 90 min at −10° C. All compounds were diluted in phosphate buffered saline (VWR CAT#45000-434) supplemented with 20 mM HEPES, 0.1% BSA, 0.5 mM PMSF (AEBSF), bacitracin (100 mg/L), pH 7.4. At the end of incubation, cells were washed with PBS and the radioactivity associated with each well was read using a Microplate Scintillation counter. [^125I-Tyr^8]BRU-2477 was custom made by GE Healthcare (Woburn, Mass.) and supplied as freeze-dried powder with a radiochemical purity (RCP) of >95% and specific activity of 2000 Ci/mmol.

Take `N=C(N)NCCC[C@H](NC(=O)[C@H](Cc1ccc2ccccc2c1)NC(=O)CN1CCN(CC(=O)O)CCN(CC(=O)O)CCN(CC(=O)O)CC1)C(=O)N[C@@H](Cc1c[nH]c2ccccc12)C(=O)N[C@@H](CO)C(=O)N[C@@H](Cc1c[nH]cn1)C(=O)N[C@H](CCCNC(=N)N)C(=O)N[C@@H](Cc1c[nH]c2ccccc12)C(=O)N[C@@H](Cc1ccc(C(=O)c2ccccc2)cc1)C(=O)N1CCC[C@H]1C(=O)NNC(N)=O` [BRU-3051]: the EC50 under setting [1] came to 0.62 µM. As to `CNCC(=O)N[C@@H](CCCNC(=N)N)C(=O)N[C@@H](Cc1c[nH]c2ccccc12)C(=O)N[C@@H](CO)C(=O)N[C@@H](Cc1c[nH]cn1)C(=O)N[C@H](CCCNC(=N)N)C(=O)N[C@@H](Cc1c[nH]c2ccccc12)C(=O)N[C@@H](Cc1ccc(C(=O)c2ccccc2)cc1)C(=O)N1CCC[C@H]1C(=O)N1CCCCC1CNC(=O)CN1CCN(CC(=O)O)CCN(CC(=O)O)CCN(CC(=O)O)CC1` (some centres unmarked) [BRU-3102], the EC50 was at most 0.2 µM. `CN(NC(=O)[C@@H]1CCCN1C(=O)[C@H](Cc1ccc(C(=O)c2ccccc2)cc1)NC(=O)[C@H](Cc1c[nH]c2ccccc12)NC(=O)[C@@H](CCCNC(=N)N)NC(=O)[C@H](Cc1c[nH]cn1)NC(=O)[C@H](CO)NC(=O)[C@H](Cc1c[nH]c2ccccc12)NC(=O)[C@H](CCCNC(=N)N)NC(=O)[C@@H](Cc1ccc2ccccc2c1)NC(=O)CN1CCN(CC(=O)O)CCN(CC(=O)O)CCN(CC(=O)O)CC1)C(N)=O` [compound 3021] displayed a 50% effective concentration (EC50) of 0.5 µM. The same measure, in the same setting: the figure for `N=C(N)NCCC[C@H](NC(=O)[C@H](N)Cc1ccc2ccccc2c1)C(=O)N[C@@H](Cc1c[nH]c2ccccc12)C(=O)N[C@@H](CO)C(=O)N[C@@H](Cc1c[nH]cn1)C(=O)N[C@H](CCCNC(=N)N)C(=O)N[C@@H](Cc1c[nH]c2ccccc12)C(=O)N[C@@H](Cc1ccc(C(=O)c2ccccc2)cc1)C(=O)N1CCC[C@H]1C(=O)NCC(=O)NCCCCNC(=O)CN1CCN(CC(=O)O)CCN(CC(=O)O)CCN(CC(=O)O)CC1` [BRU-2990] is above 30 µM. On the same count and under the same terms, the figure for `N=C(N)NCCC[C@H](NC(=O)[C@@H](Cc1ccc2ccccc2c1)NC(=O)CN1CCN(CC(=O)O)CCN(CC(=O)O)CCN(CC(=O)O)CC1)C(=O)N[C@@H](Cc1c[nH]c2ccccc12)C(=O)N[C@@H](CO)C(=O)N[C@@H](Cc1c[nH]cn1)C(=O)N[C@H](CCCNC(=N)N)C(=O)N[C@@H](Cc1c[nH]c2ccccc12)C(=O)O` [compound 3046] (HELM PEPTIDE1{[O=C(O)CN1CCN(CC(=O)O)CCN(CC(=O)[*:2])CCN(CC(=O)O)CC1].[O=C([C@@H](Cc1ccc2ccccc2c1)N[*:1])[*:2]].R.W.S.H.[dR].W}$$$$V2.0; N-terminus assumed) is 15.9 µM. In turn, `CN(CC(=O)N[C@@H](Cc1c[nH]cn1)C(=O)N[C@@H](Cc1c[nH]c2ccccc12)C(=O)N[C@@H](CO)C(=O)N[C@@H](Cc1c[nH]cn1)C(=O)N[C@H](Cc1cccnc1)C(=O)N[C@@H](Cc1c[nH]c2ccccc12)C(=O)N[C@@H](Cc1ccc(C(=O)c2ccccc2)cc1)C(=O)N1CCC[C@H]1C(=O)NNC(N)=O)C(=O)CN1CCN(CC(=O)O)CCN(CC(=O)O)CCN(CC(=O)O)CC1` [compound 2673] ({DOTA}-[Sar]HWSH[d3Pal]W[Bpa]P[azaGly]-NH2) gave an EC50 of 12.3 µM. Compound `C[C@@H](C(=O)N[C@@H](Cc1c[nH]cn1)C(=O)N[C@@H](Cc1c[nH]c2ccccc12)C(=O)N[C@@H](CO)C(=O)N[C@@H](Cc1c[nH]cn1)C(=O)N[C@H](CCCNC(=N)N)C(=O)N[C@@H](Cc1c[nH]c2ccccc12)C(=O)N[C@@H](Cc1ccc(C(=O)c2ccccc2)cc1)C(=O)N1CCC[C@H]1C(=O)NNC(N)=O)N(C)C(=O)CN1CCN(CC(=O)O)CCN(CC(=O)O)CCN(CC(=O)O)CC1` [BRU-2736] had an EC50 (Table 5: modifications of amino acids at positions 1 and 2, in vitro binding on EFO-27 cells) of 1.42 µM.

Under setting [1], `C[C@@H](NC(=O)[C@H](Cc1c[nH]cn1)NC(=O)[C@H](CO)NC(=O)[C@H](Cc1c[nH]c2ccccc12)NC(=O)[C@H](Cc1c[nH]cn1)NC(=O)CN(C)C(=O)CN1CCN(CC(=O)O)CCN(CC(=O)O)CCN(CC(=O)O)CC1)C(=O)N[C@@H](Cc1c[nH]c2ccccc12)C(=O)N[C@@H](Cc1ccc(C(=O)c2ccccc2)cc1)C(=O)N1CCC[C@H]1C(=O)NNC(N)=O` [compound 2672] ({DOTA}-[Sar]HWSH[dA]W[Bpa]P[azaGly]-NH2) showed an EC50 of 14 µM.
